Experimental data taken from US20240182945A1, “PRODUCTS FOR REGULATION OF EUKARYOTIC AND MICROBIAL CELLS GROWTH” (priority 2021, published 2024).
Converted amounts (≈) assume the structure as drawn. Like-named read-outs stand apart in the source and are kept apart here.

Key:
Assay type in all cases: cell-based
S. aureus = assay: Sensitivity of PP to antibiotics, standard serial microbroth-dilution method (Example 24); settings: for MIC: Staphylococcus aureus
[1] = system: PP+MM within the biosample; assay: Presence of bacterial growth in the wells supplemented with amoxicillin; parameters: key: “+” - presence of bacterial growth, antibiotic is ineffective; “−”- absence of bacterial growth, antibiotic is effective
Protocol: Next, biosamples were plated to the wells of 48 well plate filled with Columbia+Pept Meat Agar supplemented with Amoxicillin. We modulated a QID, BID and TID administration of amoxicillin on PP+MM within the biosample. The following assumptions were made.
Next we evaluated Presence of bacterial growth in the wells supplemented with amoxicillin.

[2] = system: C. albicans, non-albicans Candida spp. Aspergillus spp. in oral swabs from patients with oral candidiasis; assay: Signs of fungal growth on 12 well plate test system supplemented with antifungal antibiotics; settings: naked eye examination, samples resistant to the antibiotic
Protocol: Oral swabs (n=6) from patients with confirmed oral candidiasis caused by C. albicans, non-albicans Candida spp. Aspergillus spp., were dissolved with PBS and 0.1 uL were plated on 12 well plate test system filled with Mixed Medium 1 (see above), Mixed Medium 2 (Sabouraud agar+Potato Dextrose Agar+vitamins B12+B7) (MM2), Sabouraud agar (SA), Potato Dextrose Agar (PDA), Sabouraud's Heart Infusion (SABHI) agar. 11 wells were filled with media supplemented with antibiotics (taken at mean concentration of each antibiotic achieved in lungs at different timpoints post drug administration)—Nystatin, Amphotericin B, Clotrimazole, Fluconazole, Isavuconazole, Terbinafin, Posaconazole, Voriconazole, Anidulafungin, Caspofungin, Micafungin. One well was antibiotic free.
Plates was incubated at 30 C and the analysis of the presence/absence of microbial growth was monitored every 15 minutes from […] to 5 h, then hourly from 5 h to 8 h and then at 18 and 24 h post plating with a naked eye.
Three methods (algorithms) how to analyze fungal growth were used.
Method (Algorithm) #1. Lab technician, analyzed the appearance of fungal growth by comparing the signs of fungal growth in each well supplemented with antibiotic(s) at certain timepoint, with the signs of funal growth in the same well at previous time point(s).
Method (Algorithm)#2. Lab technician analyzed the appearance of fungal growth by comparing the signs of fungal growth in each well supplemented with antibiotic(s) with fungal growth in antibiotic-free control
Method (Algorithm) #3. Lab technician analyzed the absence of fungal growth in the wells in fixed time period of 3.5 h; 5 h and 24 h.

[3] = system: bacteria of endotracheal aspirate, sputum, BAL, wound swab from patients with ventilator associated pneumonia; assay: Signs of bacterial growth on multi-well agar test system supplemented with antibiotics (naked eye or microscopy)
Protocol: Endotracheal aspirate (n=3), sputum (n=3), BAL (n=2), wound swab (n=3) from patients with ventilator associated pneumonia were resuspended in PBS and 0.15 μL were plated on 24 well plate test system filled with Mixed medium (Columbia agar +Pepted Meat agar) (MM), Luria Broth (LB) agar, Pepted Meat agar (PMA), Columbia agar (CA), or Schaedler agar (SA).
Two wells were antibiotic free.
Biosamples were plated to the medium with a sterile swab with a slight pressure to the agar and making circular movements. Plates was incubated at 37 C and the analysis of the of microbial growth was monitored every 15 minutes from […] to 5 h, then hourly from 5 h to 8 h and then at 18 and 24 h post plating with a naked eye or with an AmScope microscope on 20× magnification with 12 mp camera.
Three methods (algorithms) how to analyze bacterial growth were used.
Method (Algorithm) #1. Lab technician, analyzed the appearance of bacterial growth by comparing the signs of bacterial growth in each well supplemented with antibiotic(s) at certain timepoint, with the signs of bacterial growth in the same well at previous time point(s).
Method (Algorithm)#2. Lab technician analyzed the appearance of bacterial growth by comparing the signs of bacterial growth in each well supplemented with antibiotic(s) with bacterial growth in antibiotic-free control
Method (Algorithm) #3. Lab technician analyzed the absence of bacterial growth in the wells in fixed time period of 3.0 h, 3.5 h; 4 h and 24 h.

[4] = Method (Algorithm) #1, MM1 medium
[5] = Method (Algorithm) #1, MM2 medium
[6] = Method (Algorithm) #1, PDA medium
[7] = Method (Algorithm) #1, SA (Sabouraud agar)
[8] = Method (Algorithm) #1, SABHI medium
[9] = Method (Algorithm) #2, MM1 medium
[10] = Method (Algorithm) #2, MM2 medium
[11] = Method (Algorithm) #2, PDA medium
[12] = Method (Algorithm) #2, SA (Sabouraud agar)
[13] = Method (Algorithm) #2, SABHI medium

Compound | Mean hour at which fungal growth became visible on the wells supplemented with a certain antibiotic [2, 4] [h] | Mean hour at which fungal growth became visible on the wells supplemented with a certain antibiotic [2, 5] [h] | Mean hour at which fungal growth became visible on the wells supplemented with a certain antibiotic [2, 6] [h] | Mean hour at which fungal growth became visible on the wells supplemented with a certain antibiotic [2, 7] [h] | Mean hour at which fungal growth became visible on the wells supplemented with a certain antibiotic [2, 8] [h] | Mean hour at which fungal growth became visible on the wells supplemented with a certain antibiotic [2, 9] [h] | Mean hour at which fungal growth became visible on the wells supplemented with a certain antibiotic [2, 10] [h] | Mean hour at which fungal growth became visible on the wells supplemented with a certain antibiotic [2, 11] [h] | Mean hour at which fungal growth became visible on the wells supplemented with a certain antibiotic [2, 12] [h] | Mean hour at which fungal growth became visible on the wells supplemented with a certain antibiotic [2, 13] [h] | further results
CC1(C)S[C@@H]2[C@H](NC(=O)[C@H](N)c3ccc(O)cc3)C(=O)N2[C@H]1C(=O)O [Amoxicillin] |  |  |  |  |  |  |  |  |  |  | Sensitivity (CLSI interpretation) (S. aureus; Biosample 1, S. aureus): S; Sensitivity (CLSI interpretation) (S. aureus; Biosample 2, S. aureus): I; Sensitivity (CLSI interpretation) (S. aureus; Biosample 3, S. aureus): S; MIC (S. aureus; Biosample 1, S. aureus): 0.25 µg/mL (≈ 0.684 µM); MIC (S. aureus; Biosample 2, S. aureus, read-out: MIC): 4 µg/mL (≈ 10.9 µM); MIC (S. aureus; Biosample 3, S. aureus, read-out: MIC): 2 µg/mL (≈ 5.47 µM); Presence of bacterial growth in the wells ([1]; Biosample 1 (PP S. aureus), C0-6 h): −; Presence of bacterial growth in the wells ([1]; Biosample 1 (PP S. aureus), C0-12 h): −; Presence of bacterial growth in the wells ([1]; Biosample 1 (PP S. aureus), C0-24 h): −; Presence of bacterial growth in the wells ([1]; Biosample 2 (PP S. aureus), C0-6 h): −; Presence of bacterial growth in the wells ([1]; Biosample 2 (PP S. aureus), C0-12 h): +; Presence of bacterial growth in the wells ([1]; Biosample 2 (PP S. aureus), C0-24 h): +; Presence of bacterial growth in the wells ([1]; Biosample 3 (PP S. aureus), C0-6 h): −; Presence of bacterial growth in the wells ([1]; Biosample 3 (PP S. aureus), C0-12 h): −; Presence of bacterial growth in the wells ([1]; Biosample 3 (PP S. aureus), C0-24 h): +
C[C@@H]1[C@H](O)[C@@H](C)/C=C/C=C/CC/C=C/C=C/C=C/C=C/C(O[C@H]2O[C@H](C)[C@@H](O)[C@H](N)[C@@H]2O)CC2O[C@](O)(CC(O)C(O)CCC(O)CC(O)CC(O)CC(=O)O[C@H]1C)CC(O)C2C(=O)O (stereo partly drawn) [Nystatin] | 4 | 4.5 | 5 | 6 | 5.5 | 4.5 | 6 | 6.5 | 6 | 7.5 | 
CC[C@@H]([C@H](C)O)n1ncn(-c2ccc(N3CCN(c4ccc(OC[C@@H]5CO[C@@](Cn6cncn6)(c6ccc(F)cc6F)C5)cc4)CC3)cc2)c1=O [Posaconazole] | 3.5 | 4.5 | 5 | 5 | 5.5 | 4.5 | 5 | 8.5 | 7 | 7 | 
CN(C/C=C/C#CC(C)(C)C)Cc1cccc2ccccc12 [Terbinafin] | 4.5 | 5 | 5 | 5 | 5 | 4.5 | 5.5 | 8 | 6.5 | 6.5 | 
C[C@@H](c1ncncc1F)[C@](O)(Cn1cncn1)c1ccc(F)cc1F [Voriconazole] | 4 | 4.5 | 5.5 | 4.5 | 5.5 | 4.5 | 4.5 | 6.5 | 8 | 7 | 
Piperacillin-tazobactam |  |  |  |  |  |  |  |  |  |  | Mean hour at which bacterial growth became visible on the wells supplemented with a certain antibiotic ([3]; microscopy examination, Method (Algorithm) #1, CA medium): 3.5 h; Mean hour at which bacterial growth became visible on the wells supplemented with a certain antibiotic ([3]; microscopy examination, Method (Algorithm) #1, LB medium): 4 h; Mean hour at which bacterial growth became visible on the wells supplemented with a certain antibiotic ([3]; microscopy examination, Method (Algorithm) #1, MM medium): 3.5 h; Mean hour at which bacterial growth became visible on the wells supplemented with a certain antibiotic ([3]; microscopy examination, Method (Algorithm) #1, PMA medium): 3.5 h; Mean hour at which bacterial growth became visible on the wells supplemented with a certain antibiotic ([3]; microscopy examination, Method (Algorithm) #1, SA medium): 3.5 h; Mean hour at which bacterial growth became visible on the wells supplemented with a certain antibiotic ([3]; microscopy examination, Method (Algorithm) #2, CA medium): 3.5 h; Mean hour at which bacterial growth became visible on the wells supplemented with a certain antibiotic ([3]; microscopy examination, Method (Algorithm) #2, LB medium): 4 h; Mean hour at which bacterial growth became visible on the wells supplemented with a certain antibiotic ([3]; microscopy examination, Method (Algorithm) #2, MM medium): 4 h; Mean hour at which bacterial growth became visible on the wells supplemented with a certain antibiotic ([3]; microscopy examination, Method (Algorithm) #2, PMA medium): 4 h; Mean hour at which bacterial growth became visible on the wells supplemented with a certain antibiotic ([3]; microscopy examination, Method (Algorithm) #2, SA medium): 3.5 h; Mean hour at which bacterial growth became visible on the wells supplemented with a certain antibiotic ([3]; naked eye examination, Method (Algorithm) #1, CA medium, samples resistant to the antibiotic): 3.5 h; Mean hour at which bacterial growth became visible on the wells supplemented with a certain antibiotic ([3]; naked eye examination, Method (Algorithm) #1, LB medium, samples resistant to the antibiotic): 4 h; Mean hour at which bacterial growth became visible on the wells supplemented with a certain antibiotic ([3]; naked eye examination, Method (Algorithm) #1, MM medium, samples resistant to the antibiotic): 3.5 h; Mean hour at which bacterial growth became visible on the wells supplemented with a certain antibiotic ([3]; naked eye examination, Method (Algorithm) #1, PMA medium, samples resistant to the antibiotic): 3.5 h; Mean hour at which bacterial growth became visible on the wells supplemented with a certain antibiotic ([3]; naked eye examination, Method (Algorithm) #1, SA medium, samples resistant to the antibiotic): 4 h; Mean hour at which bacterial growth became visible on the wells supplemented with a certain antibiotic ([3]; naked eye examination, Method (Algorithm) #2, CA medium, samples resistant to the antibiotic): 5.5 h; Mean hour at which bacterial growth became visible on the wells supplemented with a certain antibiotic ([3]; naked eye examination, Method (Algorithm) #2, LB medium, samples resistant to the antibiotic): 5 h; Mean hour at which bacterial growth became visible on the wells supplemented with a certain antibiotic ([3]; naked eye examination, Method (Algorithm) #2, MM medium, samples resistant to the antibiotic): 4 h; Mean hour at which bacterial growth became visible on the wells supplemented with a certain antibiotic ([3]; naked eye examination, Method (Algorithm) #2, PMA medium, samples resistant to the antibiotic): 4 h; Mean hour at which bacterial growth became visible on the wells supplemented with a certain antibiotic ([3]; naked eye examination, Method (Algorithm) #2, SA medium, samples resistant to the antibiotic): 5.5 h
